The values that follow come from US9718813B2, “Imidazolin-5-one derivative useful as FASN inhibitors for the treatment of cancer” (Janssen Pharmaceutica, NV, priority 2013, dated 2017).

Test [1] has as its target FASN Keto-reductase Domain (hFASN enzyme, full length) (Homo sapiens (Human), UniProt P49327). The test can be described thus: Fatty Acid Synthase Keto-reductase Domain (FASN KR) Inhibition. In kind it is biochemical. Particulars: NADPH oxidation at 340 nm, ethyl acetoacetate substrate. Here is the method: After 20 minutes incubation at room temperature the plate was measured again (T2).
The decrease in absorbance was calculated as (Absorbance before incubation T1)−(Absorbance following incubation T2).
(§1) Raw data generated by the instrument were normalized to % Controlmin values, which were calculated as: % Controlmin=100*(x−mLC)/(mHC−mLC)
(§2) where mLC and mHC were the means of the low control wells and high control wells on the plate, after manual exclusion of outliers. A plot of Controlmin versus test compound concentration was fitted to a 4-parameter logistic curve using a non-linear least squares regression method.

Test [2] addresses hFASN enzyme (full length) (Homo sapiens (Human), UniProt P49327). Description: Fatty Acid Synthase (FASN) Inhibition Scintillation Proximity Assay. In kind it is biochemical. Particulars: 3H-acetyl-CoA and malonyl-CoA substrates, SPA, mean if tested more than once. Here is the method: In this assay, inhibition of FASN activity is measured using ^3H-acetyl-CoA and malonyl-CoA as substrates. ^3H-Acetyl CoA is converted to ^3H-palmitate through a series of reactions by the FASN protein, which contains 7 functional domains and carries out 7 enzymatic reactions to ultimately produce ^3H-palmitate. The assay principle is based upon the fact that ^3H-acetyl-CoA is hydrophilic and the end product, ^3H-palmitate is hydrophobic.
10 μL assay buffer (100 mM KH2PO4 pH 7.5, 1 mM DTT) (20 μL in blanks) was added to a 384-well white Opti Plate plate (Perkin Elmer). 0.9 μL test compound (at concentrations of 30 μM, 10 μM, 3 μM, 1 μM, 0.30 μM, 0.10 μM, 0.03 μM and 0.01 μM)/DMSO and 10 μL hFASN enzyme (full length, 300 ng, purified in house) or 10 μL assay buffer was added to the wells. […] The reaction was stopped by adding 20 μL Streptavidin coupled imaging beads (25 mg/ml). After incubation for 30 minutes at room temperature in the dark, the 384 well plate was centrifuged at 1500 rpm for 3 minutes and was measured after at least 24 hrs by the LEADseeker™, measuring emission using a 610±20 nm pass filter.
as §1, §2

Sequence of hFASN enzyme (full length) (P49327 whole entry, the tested form may be a part): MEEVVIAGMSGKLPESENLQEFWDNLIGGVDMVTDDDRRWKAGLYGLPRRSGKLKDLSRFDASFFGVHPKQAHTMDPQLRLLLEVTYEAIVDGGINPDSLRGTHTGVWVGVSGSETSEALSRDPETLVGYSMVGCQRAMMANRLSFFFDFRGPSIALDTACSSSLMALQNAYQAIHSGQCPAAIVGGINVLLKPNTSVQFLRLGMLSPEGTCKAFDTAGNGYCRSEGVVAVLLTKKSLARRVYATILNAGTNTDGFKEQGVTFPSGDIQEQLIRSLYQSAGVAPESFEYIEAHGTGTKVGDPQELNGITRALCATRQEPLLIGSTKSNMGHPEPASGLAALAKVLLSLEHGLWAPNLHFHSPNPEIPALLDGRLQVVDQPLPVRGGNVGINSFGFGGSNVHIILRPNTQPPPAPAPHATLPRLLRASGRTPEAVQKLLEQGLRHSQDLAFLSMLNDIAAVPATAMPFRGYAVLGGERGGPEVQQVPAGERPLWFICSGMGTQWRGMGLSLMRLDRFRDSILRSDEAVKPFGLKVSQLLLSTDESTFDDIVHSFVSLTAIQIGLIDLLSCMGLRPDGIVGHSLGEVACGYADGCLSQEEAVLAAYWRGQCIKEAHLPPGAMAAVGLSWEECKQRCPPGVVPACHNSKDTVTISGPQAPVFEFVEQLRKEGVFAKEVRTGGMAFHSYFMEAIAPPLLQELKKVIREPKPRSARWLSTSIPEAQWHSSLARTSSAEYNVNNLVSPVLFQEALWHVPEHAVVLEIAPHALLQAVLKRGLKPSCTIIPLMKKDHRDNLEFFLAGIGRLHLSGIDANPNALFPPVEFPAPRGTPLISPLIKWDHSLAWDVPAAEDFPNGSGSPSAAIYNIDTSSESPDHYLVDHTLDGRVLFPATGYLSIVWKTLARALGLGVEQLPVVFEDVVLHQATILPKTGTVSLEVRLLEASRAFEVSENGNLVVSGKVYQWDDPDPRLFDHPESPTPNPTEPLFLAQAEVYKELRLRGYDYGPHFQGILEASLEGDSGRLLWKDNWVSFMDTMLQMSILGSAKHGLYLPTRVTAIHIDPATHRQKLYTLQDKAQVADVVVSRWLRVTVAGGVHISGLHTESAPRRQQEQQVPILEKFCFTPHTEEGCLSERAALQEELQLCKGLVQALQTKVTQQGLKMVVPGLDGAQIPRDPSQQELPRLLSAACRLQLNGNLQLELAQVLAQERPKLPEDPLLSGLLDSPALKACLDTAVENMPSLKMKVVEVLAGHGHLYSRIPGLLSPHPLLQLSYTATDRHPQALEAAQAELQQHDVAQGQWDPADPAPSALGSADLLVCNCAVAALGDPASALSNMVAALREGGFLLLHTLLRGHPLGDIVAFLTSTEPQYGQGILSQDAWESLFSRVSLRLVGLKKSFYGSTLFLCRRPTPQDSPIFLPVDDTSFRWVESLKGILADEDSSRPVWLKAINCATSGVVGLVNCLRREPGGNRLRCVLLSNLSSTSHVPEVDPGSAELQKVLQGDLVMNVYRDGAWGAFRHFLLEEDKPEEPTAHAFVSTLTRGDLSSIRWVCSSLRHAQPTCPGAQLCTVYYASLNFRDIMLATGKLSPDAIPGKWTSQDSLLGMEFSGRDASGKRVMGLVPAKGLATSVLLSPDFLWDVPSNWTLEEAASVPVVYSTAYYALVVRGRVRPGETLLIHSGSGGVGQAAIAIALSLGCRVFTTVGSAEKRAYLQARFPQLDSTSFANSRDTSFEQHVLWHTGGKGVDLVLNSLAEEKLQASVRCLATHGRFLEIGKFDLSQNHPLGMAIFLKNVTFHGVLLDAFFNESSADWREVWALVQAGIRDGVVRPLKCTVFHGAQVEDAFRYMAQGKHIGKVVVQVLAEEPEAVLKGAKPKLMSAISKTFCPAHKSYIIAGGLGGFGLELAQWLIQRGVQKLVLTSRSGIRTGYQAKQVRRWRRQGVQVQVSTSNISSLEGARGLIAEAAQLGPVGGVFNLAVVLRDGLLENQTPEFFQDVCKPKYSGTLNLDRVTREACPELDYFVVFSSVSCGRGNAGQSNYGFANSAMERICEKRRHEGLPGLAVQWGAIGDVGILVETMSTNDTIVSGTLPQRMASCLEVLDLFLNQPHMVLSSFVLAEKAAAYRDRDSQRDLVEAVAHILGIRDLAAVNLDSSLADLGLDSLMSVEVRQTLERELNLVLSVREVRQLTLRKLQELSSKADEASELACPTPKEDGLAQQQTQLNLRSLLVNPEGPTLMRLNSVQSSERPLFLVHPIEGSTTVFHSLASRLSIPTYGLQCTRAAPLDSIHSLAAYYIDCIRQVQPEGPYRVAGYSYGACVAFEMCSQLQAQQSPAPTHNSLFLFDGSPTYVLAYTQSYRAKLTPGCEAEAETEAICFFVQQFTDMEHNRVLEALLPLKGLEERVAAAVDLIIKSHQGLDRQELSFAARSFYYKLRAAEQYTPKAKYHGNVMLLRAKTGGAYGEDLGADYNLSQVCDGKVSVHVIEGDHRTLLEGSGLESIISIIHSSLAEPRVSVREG
Sequence of FASN Keto-reductase Domain (hFASN enzyme, full length) (P49327 whole entry, the tested form may be a part): as above

For `CC1(C)N=C(c2ccc(-c3ccc(-c4ccncc4)cc3)cc2)N(CC2CN(C(=O)C3CC3)C2)C1=O` [Compound 26, 1-((1-(cyclopropanecarbonyl)azetidin-3-yl)methyl)-4,4-dimethyl-2-(4′-(pyridin-4-yl)-[1,1′-biphenyl]-4-yl)-1H-imidazol-5(4H)-one], the “FASN Keto-reductase Domain pIC50” value in test [1] stood at 6.08. In addition, the “Human FASN pIC50” value in test [2] is given as around 6.22.
On the same counts, the results for `CC1(C)N=C(c2ccc(-c3ccc4cnccc4c3)cc2)N(CC2CN(C(=O)C3CC3)C2)C1=O` [Compound 27, 1-((1-(cyclopropanecarbonyl)azetidin-3-yl)methyl)-2-(4-(isoquinolin-6-yl)phenyl)-4,4-dimethyl-1H-imidazol-5(4H)-one] are 6.41 and 6.72.
For `CC1(C)N=C(c2ccc(-c3ccc4cnccc4c3)cc2)N(C[C@@H]2CCN(C(=O)C3CC3)C2)C1=O` [Compound 28, (R)-1-((1-(cyclopropanecarbonyl)pyrrolidin-3-yl)methyl)-2-(4-(isoquinolin-6-yl)phenyl)-4,4-dimethyl-1H-imidazol-5(4H)-one], in test [1], the “FASN Keto-reductase Domain pIC50” value is 7.14. For the same compound, in test [2], the “Human FASN pIC50” value came out at 7.23.
Take `CC1(C)N=C(c2ccc(-c3ccc4cc(F)ccc4c3)cc2)N(CC2CN(C(=O)C3CC3)C2)C1=O` [Compound 29, 1-((1-(cyclopropanecarbonyl)azetidin-3-yl)methyl)-2-(4-(6-fluoronaphthalen-2-yl)phenyl)-4,4-dimethyl-1H-imidazol-5(4H)-one]: in test [1], the “FASN Keto-reductase Domain pIC50” value was 6.62. For the same compound, in test [2], the “Human FASN pIC50” value is given as 7.02.
On to `CC1(C)N=C(c2ccc(-c3ccc4cc(F)ccc4c3)cc2)N(C[C@@H]2CCN(C(=O)C3CC3)C2)C1=O` [Compound 30, (R)-1((1-(cyclopropanecarbonyl)pyrrolidin-3-yl)methyl)-2-(4-(6-fluoronaphthalen-2-yl)phenyl)-4,4-dimethyl-1H-imidazol-5(4H)-one], for which the “FASN Keto-reductase Domain pIC50” value in test [1] worked out at 7.17. Further, in test [2], the “Human FASN pIC50” value was 7.26.
`CC1(C)N=C(c2ccc(-c3cccc4ncccc34)cc2)N(C[C@@H]2CCN(C(=O)C3CC3)C2)C1=O` [Compound 31, (R)-1-((1-(cyclopropanecarbonyl)pyrrolidin-3-yl)methyl)-4,4-dimethyl-2-(4-(quinolin-5-yl)phenyl)-1H-imidazol-5(4H)-one]: the “FASN Keto-reductase Domain pIC50” value in test [1] was 6.33. In addition, in test [2], the “Human FASN pIC50” value was 6.72.
For the compound `Cn1ncc2cc(-c3ccc(C4=NC(C)(C)C(=O)N4CC4CN(C(=O)C5CC5)C4)c(F)c3)ccc21` [Compound 32, 1-((1-(cyclopropanecarbonyl)azetidin-3-yl)methyl)-2-(2-fluoro-4-(1-methyl-1H-indazol-5-yl)phenyl)-4,4-dimethyl-1H-imidazol-5(4H)-one], the “FASN Keto-reductase Domain pIC50” value in test [1] is listed as 5.86. Moreover, the “Human FASN pIC50” value in test [2] was 6.29.
Take `Cn1cc(-c2ccc(-c3ccc(C4=NC(C)(C)C(=O)N4CC4CN(C(=O)C5CC5)C4)c(F)c3)cc2)cn1` [Compound 33, 1-((1-(cyclopropanecarbonyl)azetidin-3-yl)methyl)-2-(3-fluoro-4′-(1-methyl-1H-pyrazol-4-yl)-[1,1′-biphenyl]-4-yl)-4,4-dimethyl-1H-imidazol-5(4H)-one]: in test [1], the “FASN Keto-reductase Domain pIC50” value was determined as 6.38. Moreover, the “Human FASN pIC50” value in test [2] is listed as 6.74.
On the same counts, the results for `CC1(C)N=C(c2ccc(-c3ccc4cccnc4c3)cc2F)N(CC2CN(C(=O)C3CC3)C2)C1=O` [Compound 39, 1-((1-(cyclopropanecarbonyl)azetidin-3-yl)methyl)-2-(2-fluoro-4-(quinolin-7-yl)phenyl)-4,4-dimethyl-1H-imidazol-5(4H)-one] are 6.81 and 7.05.
In the case of `CC1(C)N=C(c2ccc(-c3ccc4cccc(F)c4c3)cc2)N(CC2CN(C(=O)C3CC3)C2)C1=O` [Compound 40, 1-((1-(cyclopropanecarbonyl)azetidin-3-yl)methyl)-2-(4-(8-fluoronaphthalen-2-yl)phenyl)-4,4-dimethyl-1H-imidazol-5(4H)-one], in test [1], the “FASN Keto-reductase Domain pIC50” value was determined as 6.46. Moreover, the “Human FASN pIC50” value in test [2] came out at 6.75.
On the same counts, the results for `CC1(C)N=C(c2ccc(-c3ccc4cccc(F)c4c3)cc2)N(C[C@@H]2CCN(C(=O)C3CC3)C2)C1=O` [Compound 41, (R)-1-((1-(cyclopropanecarbonyl)pyrrolidin-3-yl)methyl)-2-(4-(8-fluoronaphthalen-2-yl)phenyl)-4,4-dimethyl-1H-imidazol-5(4H)-one] are 7.13 and 7.34.
On to `CC1(C)N=C(c2ccc(-c3ccc4cncnc4c3)cc2)N(C[C@@H]2CCN(C(=O)C3CC3)C2)C1=O` [Compound 42, (R)-1-((1-(cyclopropanecarbonyl)pyrrolidin-3-yl)methyl)-4,4-dimethyl-2-(4-(quinazolin-7-yl)phenyl)-1H-imidazol-5(4H)-one], for which the “FASN Keto-reductase Domain pIC50” value in test [1] is on record as 6.32. The “Human FASN pIC50” value in test [2] came to 6.65.
For `CC1(C)N=C(c2ccc(-c3ccc4cncnc4c3)cc2F)N(C[C@@H]2CCN(C(=O)C3CC3)C2)C1=O` [Compound 44, (R)-1-((1-(cyclopropanecarbonyl)pyrrolidin-3-yl)methyl)-2-(2-fluoro-4-(quinazolin-7-yl)phenyl)-4,4-dimethyl-1H-imidazol-5(4H)-one], in that order: 6.65 and 6.79.
`Cn1cc(-c2ccc(-c3ccc(C4=NC(C)(C)C(=O)N4C[C@@H]4CCN(C(=O)C5CC5)C4)c(F)c3)cc2)cn1` [Compound 45, (R)-1-((1-(cyclopropanecarbonyl)pyrrolidin-3-yl)methyl)-2-(3-fluoro-4-(1-methyl-1H-pyrazol-4-yl)-[1,1′-biphenyl]-4-yl)-4,4-dimethyl-1H-imidazol-5(4H)-one]: the “FASN Keto-reductase Domain pIC50” value in test [1] is 6.95. In test [2], the “Human FASN pIC50” value was 7.20.
Take `CC1(C)N=C(c2ccc(-c3ccc(-c4ccncc4)cc3)cc2F)N(C[C@@H]2CCN(C(=O)C3CC3)C2)C1=O` [Compound 46, (R)-1-((1-(cyclopropanecarbonyl)pyrrolidin-3-yl)methyl)-2-(3-fluoro-4′-(pyridin-4-yl)-[1,1′-biphenyl]-4-yl)-4,4-dimethyl-1H-imidazol-5(4H)-one]: the “FASN Keto-reductase Domain pIC50” value in test [1] turned out to be 6.90. Besides, the “Human FASN pIC50” value in test [2] was 7.28.
For `CC1(C)N=C(c2ccc(-c3cccc4ncccc34)cc2F)N(C[C@@H]2CCN(C(=O)C3CC3)C2)C1=O` [Compound 47, (R)-1-((1-(cyclopropanecarbonyl)pyrrolidin-3-yl)methyl)-2-(2-fluoro-4-(quinolin-5-yl)phenyl)-4,4-dimethyl-1H-imidazol-5(4H)-one], in test [1], the “FASN Keto-reductase Domain pIC50” value is on record as 6.52. Also, in test [2], the “Human FASN pIC50” value amounted to 6.78.
For `CC1(C)N=C(c2ccc(-c3ccc4cccnc4c3)cc2F)N(C[C@@H]2CCN(C(=O)C3CC3)C2)C1=O` [Compound 49, (R)-1-((1-(cyclopropanecarbonyl)pyrrolidin-3-yl)methyl)-2-(2-fluoro-4-(quinolin-7-yl)phenyl)-4,4-dimethyl-1H-imidazol-5(4H)-one], in that order: 7.20 and 7.34.
`CC1(C)N=C(c2ccc(-c3nc4ccccc4o3)cc2F)N(CC2CN(C(=O)C3CC3)C2)C1=O` [Compound 52, 2-(4-(benzo[d]oxazol-2-yl)-2-fluorophenyl)-1-((1-(cyclopropanecarbonyl)azetidin-3-yl)methyl)-4,4-dimethyl-1H-imidazol-5(4H)-one]: in test [1], the “FASN Keto-reductase Domain pIC50” value stood at 5.77. Besides, the “Human FASN pIC50” value in test [2] is listed as 6.25.
For `CC1(C)N=C(c2ccc(-c3ccc4cc(F)ccc4c3)cc2F)N(CC2CN(C(=O)C3CC3)C2)C1=O` [Compound 54, 1-((1-(cyclopropanecarbonyl)azetidin-3-yl)methyl)-2-(2-fluoro-4-(6-fluoronaphthalen-2-yl)phenyl)-4,4-dimethyl-1H-imidazol-5(4H)-one], in test [1], the “FASN Keto-reductase Domain pIC50” value was 6.55. Further, the “Human FASN pIC50” value in test [2] is given as 7.55.
For the compound `CC1(C)N=C(c2ccc(-c3ccc4cccc(F)c4c3)cc2F)N(CC2CN(C(=O)C3CC3)C2)C1=O` [Compound 55, 1-((1-(cyclopropanecarbonyl)azetidin-3-yl)methyl)-2-(2-fluoro-4-(8-fluoronaphthalen-2-yl)phenyl)-4,4-dimethyl-1H-imidazol-5(4H)-one], the “FASN Keto-reductase Domain pIC50” value in test [1] is listed as 6.60. Moreover, in test [2], the “Human FASN pIC50” value amounted to 7.46.
`CC1(C)N=C(c2ccc(-c3ccc4cnccc4c3)cc2F)N(CC2CN(C(=O)C3CC3)C2)C1=O` [Compound 56, 1-((1-(cyclopropanecarbonyl)azetidin-3-yl)methyl)-2-(2-fluoro-4-(isoquinolin-6-yl)phenyl)-4,4-dimethyl-1H-imidazol-5(4H)-one]: the “FASN Keto-reductase Domain pIC50” value in test [1] is 6.33. Also, the “Human FASN pIC50” value in test [2] turned out to be 7.17.
